Measurements taken from US20100003271A1, “NITRIC OXIDE INCREASES SWITCHING OF T CELLS INTO T REGULATORY CELLS” (BOARD OF REGENTS OF THE UNIVERSITY OF TEXAS SYSTEM, priority 2006, published 2010).

How the values were obtained:
Assay type in all cases: cell-based, human
[1] = tested on: PBLs; experiment: Generation of CD4+CD25highCD127- Treg cells in PBL culture (FACS)
Method: PBLs or purified T cells were either left untreated or treated with 10 μg/ml phytohemagglutanin (PHA, Sigma-Aldrich) at 1×10^6 cells/2 mL in 24-well plates in the absence or presence of various concentrations of SNAP-DMSO, DMSO or SNP and cultured in RPMI-10 for 5 days. Cells were then harvested and stained with anti-human CD4-PerCP, anti-human CD25-APC and anti-human CD127-PE Abs. Flow cytometry analysis measured CD4^+CD25^high CD127^low versus CD4^+CD25^highCD127^high populations using FACSAria with Diva program or FACSCalibur with CellQuest software (BD Pharmingen, San Diego, Calif.).

[2] = tested on: CD4+CD25- cells; experiment: CFSE labeling and T cell co-culture assay (switching of CD4+CD25- cells); details: in the presence of Treg cells
Method: The CD4^+CD25^negative and CD4^+CD25^high T cell populations were isolated from T cells by cell sorting (FACSAria). Next, CD4^+CD25^negative cells were labeled with carboxyfluorescein diacetate succinimidyl ester (CFDA-SE; cat no C1157, Invitrogen) as described elsewhere (Hans et al., 2005). A stock solution of CFSE (5 mM) was diluted with PBS and added to the CD4^+CD25^negative cells at final concentration of 1 µM per 1×10^6 cells (20 minutes at 37° C.). After three washings, CFSE-labeled CD4^+CD25^negative cells (1×10^6) were co-cultured without or with CD4^+CD25^high cells at 10:1 ratio without or with titrated SNAP or DMSO and 6 hours later cells were activated with PHA (10 μg/ml). Following 5 days cells were harvested and stained with anti-human CD25-APC and anti-human CD127-PE Abs to measure transformation of CD^4+CD25^negative cells to CD25^+CD127^negative cells by FACS. The same cells were added to a primary syngeneic MLC at responder/regulator cell ratios (1/0, 1/0.25, 1/0.5, and 1/1). Cells were cultured for 5 days and the [^3H]-thymidine incorporation was measured as described above.

[3] = tested on: PBLs challenged with HLA-mismatched alloantigen; experiment: Number of Treg cells generated in alloactivated PBL culture; details: 100 μM SNAP, 60×10^6 PBLs, 5-day culture, FIG. 5A
Method: Alloactivation was set up by co-culturing responder PBLs (1-2×10^6 cells/ml) in a total volume of 35 ml of RPMI-10 with fully HLA mismatched gamma-irradiated (30 Gy) stimulators (1:1 ratio) in the presence of SNAP/DMSO. After 5 days, cells were washed and stained with anti-CD4-FITC and anti-CD25-PE Abs to isolate CD4+CD25^high and CD4+CD25^intermediate populations by FACS sorting. These cell populations were then added to fresh syngeneic PBLs (1×10^5) at different responder/regulator cell ratios (1/0, 1/0.005, 1/0.01, 1/0.05, 1/0.1, 1/0.5, and 1/1) with the same HLA-mismatched irradiated stimulators (1×10^5). Cells cultured in a 200 μl volume of RPMI-10 in 96-well round-bottomed plates for 5 days and pulsed with 1 μCi of [^3H]-thymidine for last 16 hours before harvesting. Cells were collected onto glass filters using an automated multi-sample harvester and the amount of [^3H]-thymidine incorporation was measured with a scintillation counter (Packard, Meridan, Conn.). Proliferative responses are expressed as the mean [^3H]-thymidine incorporation (counts per minute [cpm]) of triplicate wells±SD. In identical experiments, PBLs were activated with PHA (10 μg/ml) to examine the ability of NO-induced CD4+CD25^high population to suppress proliferation of alloantigen-specific MLC.

[4] = tested on: PHA-activated PBLs; experiment: Intracellular FoxP3 staining of CD4+CD25highCD127- population; details: PHA-activated PBLs, 30, 50, 100 μM SNAP, 5 days, FIG. 3
Method: Foxp3 intracellular staining was carried out using the FITC anti-human Foxp3 staining kit (BDBiosciences, San Diego, Calif.; Cat no 71-5776-40). In brief, PBLs from various groups were incubated with anti-human CD4-PerCP, anti-human CD25-APC and anti-human CD127-PE Abs for 20 minutes at room temperature for surface staining of CD4, CD25 and CD127 molecules, respectively. Cells were then washed, and fixed with Fix/Perm solution (30 minutes at 4° C.) and permeabilized with permeabilization buffer followed by blocking with rat serum (15 minutes at 4° C.). Cells were then stained with FITC-conjugated anti-FoxP3 or isotype control Ab (30 minutes at 4° C.). Cells were analyzed by flow cytometry for intracellular FoxP3 levels in CD4^+CD25^high/CD127^low versus CD4^+CD25^high/CD127^high cells on a FACSAria.

CC(=O)NC(C(=O)O)C(C)(C)SN=O (racemic) [SNAP, S-Nitroso-N-acetyl-DL-penicillamine]
levels of CD4+CD25+CD127- Treg cells ([1]; PHA-activated PBLs, 5-day culture, FIG. 2B): significantly increased
increase in generation of CD4+CD25+CD127-FoxP3+ Treg cells ([1]; low NO concentrations (10-100 μM nitrite)): 3 fold
number of CD4+CD25+CD127- Treg cells ([1]; non-activated PBLs): did not affect
switching of CD4+CD25- cells into CD4+CD25+CD127-FoxP3+ T regulatory (Tr1) cells [2]: elevated switching
number of Treg cells generated relative to culture without SNAP [3]: ~3 fold
generation of Foxp3-positive CD4+CD25+CD127- Treg cells [4]: induces generation of Foxp3-positive
